Legend:
anti-CD19 CAR T cells [1] = assay: Cytolytic activity of anti-CD19 CAR T cells co-cultured with K562-CD19 target cells in the presence of ibrutinib (IncuCyte); format: cell-based, human
Source text: (§1) To generate CAR-expressing T cells, T cells were isolated by immunoaffinity-based enrichment from three healthy human donor subjects, and cells from each donor were activated and transduced with a viral vector encoding an anti-CD19 CAR. The CAR contained an anti-CD19 scFv, an Ig-derived spacer, a human CD28-derived transmembrane domain, a human 4-1BB-derived intracellular signaling domain and a human CD3 zeta-derived signaling domain. The nucleic acid construct encoding the CAR also included a truncated EGFR (tEGFR) sequence for use as a transduction marker, separated from the CAR sequence by a self-cleaving T2A sequence.
(§2) CAR-expressing CD4+ and CD8+ cells were mixed 1:1 for each donor, individually, and the pooled cells for each donor assessed in vitro under various conditions.
The target cells were labeled with NucLight Red (NLR), to permit tracking of target cells by microscopy.

anti-CD19 CAR T cells [2] = assay: Expression of CAR-T cell surface markers by flow cytometry after stimulation with irradiated K562-CD19 cells; format: cell-based, human
Source text: as §1, §2
CAR-T cells generated as described above were plated at 100,000 cells/well on 96 well Poly-D-Lysine coated plates. Irradiated K562-CD19 target cells were added at an effector to target ratio of 2.5:1. […] Cells were harvested at 1, 2, 3, and 4 days, and were analyzed by flow cytometry for T cell activation and differentiation surface markers CD69, CD107a, PD-1, CD25, CD38, CD39, CD95, CD62L, CCR7, CD45RO and for truncated EGFR (a surrogate marker for CAR-transduced cells).

anti-CD19 CAR T cells [3] = assay: Cytokine production in supernatants of CAR-T / K562-CD19 co-cultures (MSD); format: cell-based, human
Source text: as §1, §2
CAR-T cells generated as described above were plated at 100,000 cells/well on 96 well Poly-D-Lysine coated plates to which irradiated target cells (K562-CD19) were added at an effector to target ratio of 2.5:1. […] Culture supernatants were harvested every 24 hrs at days 1, 2, 3 and 4, and IFNγ, IL-2, TNFα, IL-4 and IL-10 were measured from the culture supernatants using cytokine kits from Meso Scale Discovery (MSD).

anti-CD19 CAR T cells [4] = assay: Serial restimulation assay of anti-CD19 CAR+ T cells with K562-CD19 target cells; format: cell-based, human; settings: day 18; both concentrations (50, 500 nM); two of three donors
Source text: as §1, §2
(§3) The ability of cells to expand ex vivo following repeated stimulations in some aspects can indicates capacity of CAR-T cells to persist (e.g., following initial activation) and/or is indicative of function and/or fitness in vivo (Zhao et al. (2015) Cancer Cell, 28:415-28). Anti-CD19 CAR+ T cells generated as described above were plated in triplicate at 100,000 cells/well on 96 well Poly-D-Lysine coated plates, and irradiated target cells (K562-CD19) were added at an effector to target ratio of 2.5:1. […] A total of 7 rounds of stimulation during a 25 day culture period were carried out.

anti-CD19 CAR T cells [5] = assay: TH1 phenotype (CD4+CXCR3+CRTH2-) and activation/memory markers by flow cytometry during serial restimulation; format: cell-based, human
Method: as §3
A serial restimulation assay was performed as described above and cells were harvested at various times and analyzed by flow cytometry to assess percentage of TH1-phenotype (assessed as CD4+CXCR3+CRTH2−) T cells or TH2-phenotype (assessed as CD4+CXCR3−CRTH2+).

anti-CD19 CAR T cells [6] = assay: Gene expression analysis (Nanostring Immune V2 panel) after 18 days of serial stimulation; format: cell-based, human; settings: 50 nM or 500 nM; day 18 of serial restimulation
Method: as §3
At day 18 after serial stimulation, RNA was isolated from anti-CD19 CAR T cells and Nanostring Immune V2 panel tests were run across 594 genes. The log 2 (fold change) of each gene was plotted against the −log 10(Raw p-value) derived from ANOVA tests of unscaled housekeeping gene normalized to count data for treatment versus control.

[7] = system: CD19+ Nalm-6 disseminated tumor line; assay: Disseminated Nalm-6 tumor xenograft mouse model, ibrutinib by daily oral gavage; format: in vivo, NSG mice
Source text: On day zero (0), NSG mice were intravenously injected with 5×10^5 Nalm-6 cells expressing firefly luciferase. […] To permit assessment of the effect of a combination therapy with the inhibitor, a suboptimal dose of anti-CD19 CAR T cells from two different donors (generated by transducing cells derived from samples of human donor subjects essentially as described above) were i.v. injected into each mouse at a concentration of 5×10^5 CAR+ T cells per mouse at day 5. […] Eight (N=8) mice per group were monitored.
Following treatment as described above, tumor growth over time was measured by bioluminescence imaging and the average radiance (p/s/cm^2/sr) was measured. Survival of treated mice also was assessed over time.

[8] = system: CD19+ Nalm-6 disseminated tumor line; assay: Disseminated Nalm-6 tumor xenograft mouse model, ibrutinib in drinking water; format: in vivo, NSG mice
Method: (§4) NSG mice described in Example 2 were intravenously injected on day 0 with 5×10^5 Nalm-6 cells expressing firefly luciferase. […] To permit assessment of the effect of a combination therapy with the inhibitor, a suboptimal dose of anti-CD19 CAR T cells was i.v. injected into the mice at 5×10^5/mouse at day 5. As a control, mice were administered the vehicle control without administration of the CAR-T cells or inhibitor.

[9] = system: CAR+ T cells and Nalm-6 tumor cells; assay: Levels of CAR+ T cells and tumor cells in blood, bone marrow and spleen of Nalm-6 bearing mice; format: in vivo, NSG mice
Method: as §4
Samples were analyzed to assess presence and levels of CAR T cells (based on expression of the surrogate marker using an anti-EGFR antibody) and/or tumor cells at days 7, 12, 19 and 26 post CAR+ T cell transfer.

CAR+ T cells = assay: Ex vivo immunophenotyping (flow cytometry, t-SNE) of CAR+ T cells at day 12 post CAR T transfer; format: in vivo, NSG mice
Method: as §4
Flow cytometry histograms showing the individual expression profiles of CD4, CD8, CD62L, CD45RA, CD44 and CXCR3 from the 4 gated t-SNE in FIG. 8B overlaid on the expression of the total population (shaded) is shown in FIG. 8C.

[10] = system: anti-CD19 CAR-T cells from DLBCL subjects; assay: Serial restimulation and cytolytic function of anti-CD19 CAR-T cells manufactured from DLBCL patients; format: cell-based, human
Source text: Cells were subjected to serial restimulation over a 21 day culture period and monitored for cell expansion and cytotoxic activity.

CAR-expressing T cells = assay: RNA-Seq molecular signature of CAR-expressing T cells after 18 days of serial stimulation; format: cell-based, human
Method: RNA isolation was performed using the RNEasy Micro Kit (Qiagen). Samples were sequenced and RNASeq reads were mapped to the human genome (GRCh38) and aligned to the GENCODE release 24 gene model. […] Differentially expressed genes were identified by imposing a log2 fold change cutoff of 0.5 and a Benjamini-Hochberg adjusted false discovery rate (FDR) cutoff of 0.05.

CAR T cells = assay: CD62L expression by flow cytometry after 18 days of serial stimulation; format: cell-based, human; settings: donors 2 and 3
Method: as §3

[11] = in vivo; cited from earlier work

## C=CC(=O)N1CCC[C@@H](n2nc(-c3ccc(Oc4ccccc4)cc3)c3c(N)ncnc32)C1 [ibrutinib, 1-[(3R)-3-[4-amino-3-(4-phenoxyphenyl)pyrazolo[3,4-d]pyrimidin-1-yl]piperidin-1-yl]prop-2-en-1-one]
anti-CD19 CAR T cells [1]; all concentrations tested (0.5-5000 nM) during the co-culture
  cytolytic function of the anti-CD19 CAR T cells: did not inhibit
anti-CD19 CAR T cells [1]; one donor, P<0.0001
  target cell killing: modestly increased target cell killing
anti-CD19 CAR T cells [1]; two donors, concentration increased up to 500 nM, E:T 2.5:1, 4 days
  cytolytic activity of anti-CD19 CAR-expressing T cells (target cell killing normalized to untreated control, AUC): did not significantly impact
anti-CD19 CAR T cells [2]; 5000, 500, 50, 5 and 0.5 nM, 3 donors, up to 4 days
  expression of truncated EGFR surrogate marker, activation markers CD25, CD38, CD39, CD95, CD62L and phenotypic markers CCR7, CD62L, CD45RO: no significant effect
anti-CD19 CAR T cells [2]; CD4+ or CD8+ cells cultured in the presence of ibrutinib
  expression levels of CD69, CD107a or PD-1: subtle decrease in expression levels
anti-CD19 CAR T cells [2]; highest (supraphysiological) concentration tested
  percentage of anti-CD19 CAR T cells expressing CD69, CD107a or PD-1: subtle decrease in the percentage
anti-CD19 CAR T cells [2]; over four days after stimulation
  phenotype of cells as central memory (TCM) or effector memory (TEM) subsets (CCR7, CD45RA): did not affect the phenotype
anti-CD19 CAR T cells [3]; 50 nM
  IFN-γ and IL-2 production: some increase
anti-CD19 CAR T cells [3]; 50 nM, some donors
  cytokine production: modestly increased
anti-CD19 CAR T cells [3]; physiological concentrations of ibrutinib
  cytokine concentrations: did not significantly decrease
anti-CD19 CAR T cells [4]
  cell numbers and population doublings of anti-CD19 CAR T cells: enhanced cell numbers and population doublings
anti-CD19 CAR T cells [5]; 500 nM, P<0.01
  percentage of TH1 cells: further enhanced
anti-CD19 CAR T cells [5]; CAR T cells from the serial stimulation assay
  additional CAR T activation or memory markers: No significant effects
anti-CD19 CAR T cells [5]; after serial stimulation, greater with increasing concentrations
  percentage of CAR+ T cells with TH1 phenotype: increase the percentage
anti-CD19 CAR T cells [6]
  gene expression (594 genes): did not significantly alter gene expression
[7]; greater time points, two donors, ibrutinib with CAR T, p<0.001
  survival vs CAR T and vehicle: significantly increased survival
[7]; ibrutinib 25 mg/kg qd P.O. with CAR-T cells
  median survival vs suboptimal anti-CD19 CAR T cell dose + vehicle: increased median survival
[7]; ibrutinib 25 mg/kg qd P.O. with suboptimal dose of anti-CD19 CAR T cells, p<0.001, p<0.0001
  tumor growth vs CAR-T cells and vehicle: significantly decreased tumor growth
[7]; ibrutinib alone, 25 mg/kg qd P.O., ibrutinib-resistant model
  tumor burden (average radiance) vs vehicle: no effect on tumor burden
[8]; ibrutinib 25 mg/kg/day in drinking water with CAR T
  tumor growth vs CAR T with vehicle alone: significantly (P<0.001) decreased tumor growth
[8]; ibrutinib 25 mg/kg/day in drinking water with anti-CD19 CAR-T cells, p<0.001
  median survival vs suboptimal anti-CD19 CAR T cell dose + vehicle: increased median survival
[9]; CAR+ cell treatment combined with ibrutinib
  tumor cells detected in the blood, bone marrow or spleen vs vehicle alone: significantly fewer tumor cells
[9]; blood, ibrutinib in drinking water
  circulating CAR+ T cells vs CAR+ T cells and vehicle: significant increase
[9]; day 19 post CAR-T cell transfer, p<0.05
  number of CAR-T cells in the blood: significant increase in the number of cells
CAR+ T cells; bone marrow, day 12, ibrutinib-treated animals
  population 4 as percentage of CAR-T cells: 15.2%
CAR+ T cells; day 12, CAR-T cells with ibrutinib vs control
  phenotype of CAR+ T cells isolated from bone marrow: phenotypic changes were observed
CAR+ T cells; day 12 post CAR T transfer
  CD8+CD44hi CXCR3hi CD45RAlo CD62Lhi (population 2) and CD4+CD44hi CXCR3int CD45RAhi CD62Lhi (population 4) in bone marrow vs control mice: increase
[10]; 50 nM, 16 days of serial stimulation, one patient, P<0.01
  cytolytic activity: increase in cytolytic activity
[10]; 500 nM, 16 days of serial stimulation, each subject
  cytolytic function: increase in cytolytic function
[10]; 50 and 500 nM, 21 day culture, both DLBCL patients
  proliferation of CAR T cells (cell doublings): did not inhibit the proliferation
CAR-expressing T cells; 50 nM, day 18
  gene expression changes: not significant, similar trends
CAR-expressing T cells; day 18 serial stimulation
  expression of HES6, HIC1, LZTFL1, NRIP1, CD38 and RARRES3: downregulation
  expression of MSC: upregulation
  expression of SELL/CD62L: increases
  expression of granzyme A and CD38: decreases
CAR T cells
  CD62L expression: significant increase
[11]
  Cmax: 227 nM

Reference: patent US20210121466A1, “COMBINATION THERAPY OF A CHIMERIC ANTIGEN RECEPTOR (CAR) T CELL THERAPY AND A KINASE INHIBITOR” (Juno Therapeutics, Inc., priority 2018, published 2021)
